Measurements from the NIST ThermoML archive (doi:10.1016/j.fluid.2010.06.003).
Values joined by “and” are separate entries in the source; they are usually repeats but may differ in a detail not shown here. Identical values can stand only once.

Test: xn = mol fraction of the nth substance listed
Settings: Liquid, Taylor dispersion method, x1 = 0

Row | binary diffusion coefficient (313.15 K, 200 kPa) | binary diffusion coefficient (313.15 K, 160 kPa) | binary diffusion coefficient (313.15 K, 16010 kPa) | binary diffusion coefficient (313.15 K, 16030 kPa) | binary diffusion coefficient (313.15 K, 19010 kPa) | binary diffusion coefficient (313.15 K, 11030 kPa) | binary diffusion coefficient (313.15 K, 11090 kPa) [m2/s] | binary diffusion coefficient (313.15 K, 16020 kPa) [m2/s] | binary diffusion coefficient (313.15 K, 19020 kPa) | binary diffusion coefficient (323.15 K, 16020 kPa) [m2/s] | binary diffusion coefficient (323.15 K, 16030 kPa) [m2/s] | binary diffusion coefficient (313.15 K, 170 kPa) [m2/s] | also measured | Structure (SMILES)
1 | 1.29e-09 m2/s and 1.3e-09 m2/s and 1.31e-09 m2/s | – | – | – | – | – | – | – | – | – | – | – | – | C[c-]1cccc1.C[c-]1cccc1.[Fe+2] [1,1'-dimethylferrocene] + CCO
2 | – | 3.35e-09 m2/s and 3.37e-09 m2/s and 3.38e-09 m2/s and 3.3e-09 m2/s and 3.34e-09 m2/s | 2.86e-09 m2/s and 2.89e-09 m2/s | 2.87e-09 m2/s | 2.78e-09 m2/s | – | – | – | – | – | – | – | binary diffusion coefficient (313.15 K, 11060 kPa): 2.98e-09 m2/s; binary diffusion coefficient (313.15 K, 11070 kPa): 3e-09 m2/s and 2.99e-09 m2/s; binary diffusion coefficient (313.15 K, 18960 kPa): 2.81e-09 m2/s | CCc1ccc[cH-]1.[Fe+2].c1cc[cH-]c1 [ethyl ferrocene] + CCCCCC
3 | 1.48e-09 m2/s and 1.46e-09 m2/s and 1.45e-09 m2/s | – | – | – | – | – | – | – | – | – | – | – | – | [CH]1C=CC=C1.[CH]1C=CC=C1.[Fe] [ferrocene] + CCO
4 | – | – | 1.14e-09 m2/s | 1.13e-09 m2/s | 1.09e-09 m2/s | 1.2e-09 m2/s | 1.21e-09 | 1.14e-09 | 1.09e-09 m2/s and 1.14e-09 m2/s and 1.11e-09 m2/s | 1.36e-09 | 1.36e-09 | – | binary diffusion coefficient (313.15 K, 190 kPa): 1.36e-09 m2/s and 1.37e-09 m2/s; binary diffusion coefficient (313.15 K, 11020 kPa): 1.2e-09 m2/s; binary diffusion coefficient (323.15 K, 16000 kPa): 1.36e-09 m2/s | C[c-]1cccc1.C[c-]1cccc1.[Fe+2] [1,1'-dimethylferrocene] + C1CCCCC1
5 | – | 3.66e-09 m2/s and 3.65e-09 m2/s | 3.13e-09 m2/s | 3.11e-09 m2/s and 3.14e-09 m2/s | – | – | 3.29e-09 | 3.12e-09 | 3.07e-09 m2/s | – | – | 3.64e-09 | binary diffusion coefficient (313.05 K, 16020 kPa): 3.14e-09 m2/s; binary diffusion coefficient (313.05 K, 16030 kPa): 3.11e-09 m2/s; binary diffusion coefficient (313.15 K, 10990 kPa): 3.28e-09 m2/s and 3.25e-09 m2/s; binary diffusion coefficient (313.15 K, 11070 kPa): 3.28e-09 m2/s; binary diffusion coefficient (313.15 K, 15990 kPa): 3.17e-09 m2/s | [CH]1C=CC=C1.[CH]1C=CC=C1.[Fe] [ferrocene] + CCCCCC
6 | 1.5e-09 m2/s | – | 1.25e-09 m2/s | 1.25e-09 m2/s | 1.21e-09 m2/s | 1.31e-09 m2/s | 1.32e-09 | 1.25e-09 | 1.21e-09 m2/s and 1.22e-09 m2/s and 1.24e-09 m2/s | 1.48e-09 | 1.48e-09 | 1.52e-09 | binary diffusion coefficient (313.15 K, 190 kPa): 1.51e-09 m2/s; binary diffusion coefficient (313.15 K, 11080 kPa): 1.31e-09 m2/s | [CH]1C=CC=C1.[CH]1C=CC=C1.[Fe] [ferrocene] + C1CCCCC1
7 | 1.29e-09 m2/s and 1.32e-09 m2/s and 1.31e-09 m2/s | – | – | – | – | – | – | – | – | – | – | – | – | CCc1ccc[cH-]1.[Fe+2].c1cc[cH-]c1 [ethyl ferrocene] + CCO
8 | – | 3.36e-09 m2/s and 3.4e-09 m2/s and 3.37e-09 m2/s | 2.9e-09 m2/s | 2.9e-09 m2/s | – | 3.05e-09 m2/s and 3.06e-09 m2/s | – | – | 2.84e-09 m2/s | – | – | 3.41e-09 | binary diffusion coefficient (313.15 K, 15990 kPa): 2.9e-09 m2/s; binary diffusion coefficient (313.15 K, 16000 kPa): 2.89e-09 m2/s and 2.87e-09 m2/s | C[c-]1cccc1.C[c-]1cccc1.[Fe+2] [1,1'-dimethylferrocene] + CCCCCC
9 | – | – | – | 1.14e-09 m2/s and 1.15e-09 m2/s | 1.12e-09 m2/s and 1.15e-09 m2/s | 1.2e-09 m2/s | – | – | 1.12e-09 m2/s | 1.36e-09 | 1.35e-09 | 1.38e-09 | binary diffusion coefficient (313.15 K, 180 kPa): 1.36e-09 m2/s and 1.38e-09 m2/s; binary diffusion coefficient (313.15 K, 11020 kPa): 1.21e-09 m2/s; binary diffusion coefficient (313.15 K, 19030 kPa): 1.11e-09 m2/s | CCc1ccc[cH-]1.[Fe+2].c1cc[cH-]c1 [ethyl ferrocene] + C1CCCCC1
